The values below come from patent publication EP0385662B1, “Heterocycles with inhibitory activity of 5-lipoxygenase” (ZENECA LIMITED, priority 1989, dated 1990).

The term IC50 denotes the concentration that gives 50% inhibition.

Test [1] relates to 5-LO. In words: Test c): ex vivo variation of test b), oral administration, blood collection, A23187 challenge, radioimmunoassay of LTB4. It is filed as in vivo. The method, then:
(§1) As stated previously, the heterocycles of the formula I are inhibitors of the enzyme 5-LO. […] This test provides a measure of the intrinsic inhibitory properties against soluble 5-LO in an extracellular environment. • b) An in vitro assay system involving incubating a test compound with heparinised human blood, prior to challenge with the calcium ionophore A23187 and then indirectly measuring the inhibitory effects on 5-LO by assaying the amount of L TB4 using the specific radioimmunoassay described by Carey and Forder (F. Carey and R.A. Forder, Brit. J. Pharmacol. 1985, 84, 34P) which involves the use of a protein-L TB4 conjugate produced using the procedure of Young et alia (Prostaglandins, 1983, 26(4), 605-613). The effects of a test compound on the enzyme cyclooxygenase (which is involved in the alternative metabolic pathway for arachidonic acid and gives rise to prostaglandins, thromboxanes and related metabolites) may be measured at the same time using the specific radioimmunoassay for thromboxane B2(TxB2) described by Carey and Forder (see above). This test provides an indication of the effects of a test compound against 5-LO and also cyclooxygenase in the presence of blood cells and proteins. It permits the selectivity of the inhibitory effect on 5-LO or cyclooxygenase to be assessed. • c) An ex vivo assay system, which is a variation of test b) above, involving administration of a test compound (usually orally as the suspension produced when a solution of the test compound in dimethylsulphoxide is added to carboxymethylcellulose), blood collection, heparinisation, challenge with A23187 and radioimmunoassay of L TB4 and TxB2. […]

The target of test [2] is T1, 5-LO (Homo sapiens, UniProt P09917).
T1 construct: incubating a test compound with heparinised human blood, prior to challenge with the calcium ionophore A23187; endogenous in cells; host or cells: leukocytes of heparinised human whole blood
T1 sequence (P09917 1-674): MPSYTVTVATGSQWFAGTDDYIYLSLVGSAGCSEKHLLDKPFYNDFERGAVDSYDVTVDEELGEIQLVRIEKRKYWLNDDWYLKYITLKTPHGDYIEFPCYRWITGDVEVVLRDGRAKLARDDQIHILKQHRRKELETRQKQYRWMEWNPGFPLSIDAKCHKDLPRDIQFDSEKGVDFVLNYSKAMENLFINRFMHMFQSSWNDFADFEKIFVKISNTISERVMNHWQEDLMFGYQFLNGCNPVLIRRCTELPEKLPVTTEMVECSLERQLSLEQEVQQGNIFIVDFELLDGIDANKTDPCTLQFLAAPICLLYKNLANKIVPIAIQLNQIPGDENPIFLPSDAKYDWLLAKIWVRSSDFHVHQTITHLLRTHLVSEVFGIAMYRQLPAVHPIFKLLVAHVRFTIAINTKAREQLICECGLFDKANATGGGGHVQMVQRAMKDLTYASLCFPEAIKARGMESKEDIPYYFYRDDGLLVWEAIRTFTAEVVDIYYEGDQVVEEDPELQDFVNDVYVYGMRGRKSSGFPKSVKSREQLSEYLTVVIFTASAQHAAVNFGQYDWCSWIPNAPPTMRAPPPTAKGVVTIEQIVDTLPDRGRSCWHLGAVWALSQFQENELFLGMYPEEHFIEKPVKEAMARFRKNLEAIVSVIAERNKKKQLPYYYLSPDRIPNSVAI
In words: Test b): in vitro heparinised human blood challenged with calcium ionophore A23187, radioimmunoassay of LTB4. Particulars: A23187 challenge, read-out: IC50 against LTB4. It is filed as cell-based. The method, then: as §1, with “J. Pharmacol. 1985, 84, 34P) which involves the use of a protein-L TB4 conjugate produced using the procedure of Young et alia (Prostaglandins, 1983, 26(4), 605-613).” left out, “This test provides an indication of the effects of a test compound against 5-LO and also cyclooxygenase in the presence of blood cells and proteins.” left out

A further test concerns the target T2, cyclooxygenase (Homo sapiens, UniProt P23219).
T2 construct: may be measured at the same time using the specific radioimmunoassay for thromboxane B2(TxB2); endogenous in cells; host or cells: blood cells (platelets) of heparinised human whole blood
In words: Test b): in vitro heparinised human blood challenged with A23187, radioimmunoassay of thromboxane B2 (TxB2). Type of test: cell-based. Particulars: A23187 challenge, read-out: IC50 against TxB2. As to the method:
as §1, with “J. Pharmacol. 1985, 84, 34P) which involves the use of a protein-L TB4 conjugate produced using the procedure of Young et alia (Prostaglandins, 1983, 26(4), 605-613).” left out, “This test provides an indication of the effects of a test compound against 5-LO and also cyclooxygenase in the presence of blood cells and proteins.” left out

Bounds are passed on as bounds.

T2 sequence (P23219 24-599): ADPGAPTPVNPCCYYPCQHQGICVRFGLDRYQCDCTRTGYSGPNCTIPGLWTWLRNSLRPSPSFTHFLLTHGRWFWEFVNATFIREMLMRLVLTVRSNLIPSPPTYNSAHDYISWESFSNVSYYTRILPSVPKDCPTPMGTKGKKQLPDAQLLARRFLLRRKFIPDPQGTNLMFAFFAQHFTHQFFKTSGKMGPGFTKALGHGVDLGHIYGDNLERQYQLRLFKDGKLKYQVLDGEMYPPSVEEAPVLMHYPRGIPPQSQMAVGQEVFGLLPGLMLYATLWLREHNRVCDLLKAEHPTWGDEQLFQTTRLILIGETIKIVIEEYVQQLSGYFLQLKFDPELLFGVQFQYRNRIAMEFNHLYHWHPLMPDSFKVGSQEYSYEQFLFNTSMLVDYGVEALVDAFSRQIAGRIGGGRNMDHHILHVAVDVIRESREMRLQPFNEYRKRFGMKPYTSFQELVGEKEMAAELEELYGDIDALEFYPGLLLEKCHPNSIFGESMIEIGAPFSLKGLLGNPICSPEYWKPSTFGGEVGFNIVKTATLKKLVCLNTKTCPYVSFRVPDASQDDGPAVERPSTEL

Regarding `COC1(c2cccc(OCc3ccc4c(ccc(=O)n4C)c3)c2)CCOCC1` [4-[3-(1,2-dihydro-1-methyl-2-oxoquinolin-6-ylmethoxy)phenyl]-4-methoxytetrahydropyran], the “oral ED50 against LTB4” value in the test on 5-LO [1] turned out to be 3 mg/kg.
On to `COC1(c2cc(F)cc(OCc3ccc4ncccc4c3)c2)CCOCC1` [4-[5-fluoro-3-(6-quinolylmethoxy)phenyl]-4-methoxytetrahydropyran], for which, at 5-LO [2], the IC50 was 100 nM. Besides, in the test with 5-LO [1], the “oral ED50 against LTB4” value was determined as 8 mg/kg.
For `COC1(c2cccc(OCC#Cc3ccccn3)c2)CCOCC1` [4-methoxy-4-[3-(3-(2-pyridyl)prop-2-yn-1-yloxy)phenyl]-tetrahydropyran], the figures for the IC50 on 5-LO [2] and on cyclooxygenase were 2000 nM and over 40 µM, respectively. In the test with 5-LO [1], the “oral ED50 against LTB4” value is listed as under 100 mg/kg.
